Data reported in patent US9487515B2, “Compounds modulating c-fms and/or c-kit activity and uses therefor” (Plexxikon Inc., priority 2006, dated 2016).

Target: c-kit (Homo sapiens, UniProt P10721)
Experiment: c-kit assays of Examples 40 and 41 (AlphaScreen kinase assays at 10 and 100 μM ATP, 33P-ATP filter assay, M-07e SCF-stimulated proliferation and phosphorylation)

Chain of c-kit (P10721 with tags, fused parts or gaps): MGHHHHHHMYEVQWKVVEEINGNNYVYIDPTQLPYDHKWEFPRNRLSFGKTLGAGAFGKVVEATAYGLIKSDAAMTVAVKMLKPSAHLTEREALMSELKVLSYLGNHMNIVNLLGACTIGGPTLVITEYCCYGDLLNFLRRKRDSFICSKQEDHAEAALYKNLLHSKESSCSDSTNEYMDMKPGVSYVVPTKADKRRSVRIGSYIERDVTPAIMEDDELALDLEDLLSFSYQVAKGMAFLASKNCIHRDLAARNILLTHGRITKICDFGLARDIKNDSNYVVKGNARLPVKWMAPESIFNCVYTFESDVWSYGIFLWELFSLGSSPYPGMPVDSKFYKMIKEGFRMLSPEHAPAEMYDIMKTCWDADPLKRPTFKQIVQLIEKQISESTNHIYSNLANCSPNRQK

Row | IC50 [nM] | SMILES
1 | < 1000 | Clc1cnc2[nH]cc(Cc3sc(NCc4c(Cl)cncc4Cl)nc3Cl)c2c1 [P-0253, [4-Chloro-5-(5-chloro-1H-pyrrolo[2,3-b]pyridin-3-ylmethyl)-thiazol-2-yl]-(3,5-dichloro-pyridin-4-ylmethyl)-amine]
2 | < 1000 | N#Cc1cnc2[nH]cc(Cc3ccc(NCc4ccc(Cl)cc4)nc3)c2c1 [P-0257, 3-[6-(4-Chloro-benzylamino)-pyridin-3-ylmethyl]-1H-pyrrolo[2,3-b]pyridine-5-carbonitrile]
3 | < 1000 | CCCS(=O)(=O)Nc1ccc(F)c(CNc2ccc(Cc3c[nH]c4ncccc34)cn2)c1F [P-0258, propane-1-sulfonic acid (2,4-difluoro-3-[5-(1H-pyrrolo[2,3-b]pyridin-3-ylmethyl)-pyridin-2-ylamino]-methyl-phenyl)-amide]
4 | < 1000 | CCCS(=O)(=O)Nc1ccc(F)c(CNc2ccc(Cc3c[nH]c4ncc(Cl)cc34)cn2)c1F [P-0259, Propane-1-sulfonic acid (3-{[5-(5-chloro-1H-pyrrolo[2,3-b]pyridin-3-ylmethyl)-pyridin-2-ylamino]-methyl}-2,4-difluoro-phenyl)-amide]
5 | < 1000 | Clc1ccc(CNc2ncc(Cc3c[nH]c4ncc(Cl)cc34)cn2)cc1 [P-0260, (4-Chloro-benzyl)-[5-(5-chloro-1H-pyrrolo[2,3-b]pyridin-3-ylmethyl)-pyrimidin-2-yl]-amine]
6 | < 1000 | FC(F)(F)c1ccccc1CNc1ncc(Cc2c[nH]c3ncc(Cl)cc23)cn1 [P-0262, [5-(5-Chloro-1H-pyrrolo[2,3-b]pyridin-3-ylmethyl)-pyrimidin-2-yl]-(2-trifluoromethyl-benzyl)-amine]
7 | < 1000 | Clc1cnc2[nH]cc(Cc3cnc(NCc4ccccc4Cl)nc3)c2c1 [P-0263, (2-Chloro-benzyl)-[5-(5-chloro-1H-pyrrolo[2,3-b]pyridin-3-ylmethyl)-pyrimidin-2-yl]-amine]
8 | < 1000 | Fc1ccccc1CNc1ncc(Cc2c[nH]c3ncc(Cl)cc23)cn1 [P-0264, [5-(5-Chloro-1H-pyrrolo[2,3-b]pyridin-3-ylmethyl)-pyrimidin-2-yl]-(2-fluoro-benzyl)-amine]
9 | < 1000 | Fc1ccc(CNc2ncc(Cc3c[nH]c4ncc(Cl)cc34)cn2)c(F)c1 [P-0265, [5-(5-Chloro-1H-pyrrolo[2,3-b]pyridin-3-ylmethyl)-pyrimidin-2-yl]-(2,4-difluoro-benzyl)-amine]
10 | < 1000 | FC(F)(F)c1ccc(CNc2ncc(Cc3c[nH]c4ncc(Cl)cc34)cn2)cc1 [P-0266, [5-(5-Chloro-1H-pyrrolo[2,3-b]pyridin-3-ylmethyl)-pyrimidin-2-yl]-(4-trifluoromethyl-benzyl)-amine]
11 | < 1000 | Fc1ccc(F)c(CNc2ncc(Cc3c[nH]c4ncc(Cl)cc34)cn2)c1 [P-0267, [5-(5-Chloro-1H-pyrrolo[2,3-b]pyridin-3-ylmethyl)-pyrimidin-2-yl]-(2,5-difluoro-benzyl)-amine]
12 | < 1000 | FC(F)(F)c1cccc(CNc2ncc(Cc3c[nH]c4ncc(Cl)cc34)cn2)c1 [P-0268, [5-(5-Chloro-1H-pyrrolo[2,3-b]pyridin-3-ylmethyl)-pyrimidin-2-yl]-(3-trifluoromethyl-benzyl)-amine]
13 | < 1000 | N#Cc1cnc2[nH]cc(Cc3ccc(NCc4ccc(C(F)(F)F)cc4)nc3)c2c1 [P-0269, 3-[6-(4-Trifluoromethyl-benzylamino)-pyridin-3-ylmethyl]-1H-pyrrolo[2,3-b]pyridine-5-carbonitrile]
14 | < 1000 | Fc1ccccc1CNc1ccc(Cc2c[nH]c3ncc(Cl)cc23)cn1 [P-0270, [5-(5-Chloro-1H-pyrrolo[2,3-b]pyridin-3-ylmethyl)-pyridin-2-yl]-(2-fluoro-benzyl)-amine]
15 | < 1000 | N#Cc1cnc2[nH]cc(Cc3ccc(NCc4ccccc4F)nc3)c2c1 [P-0271, 3-[6-(2-Fluoro-benzylamino)-pyridin-3-ylmethyl]-1H-pyrrolo[2,3-b]pyridine-5-carbonitrile]
16 | < 1000 | Cc1cnc2[nH]cc(Cc3ccc(NCc4ccccc4F)nc3)c2c1 [P-0272, (2-Fluoro-benzyl)-[5-(5-methyl-1H-pyrrolo[2,3-b]pyridin-3-ylmethyl)-pyridin-2-yl]-amine]
17 | < 1000 | N#Cc1cnc2[nH]cc(Cc3ccc(NCc4ccc(C(F)(F)F)nc4)nc3)c2c1 [P-0273, 3-{6-[(6-Trifluoromethyl-pyridin-3-ylmethyl)-amino]-pyridin-3-ylmethyl}-1H-pyrrolo[2,3-b]pyridine-5-carbonitrile]
18 | < 1000 | N#Cc1cnc2[nH]cc(Cc3ccc(NCc4ccccc4C(F)(F)F)nc3)c2c1 [P-0274, 3-[6-(2-Trifluoromethyl-benzylamino)-pyridin-3-ylmethyl]-1H-pyrrolo[2,3-b]pyridine-5-carbonitrile]
19 | < 1000 | FC(F)(F)c1ccccc1CNc1ccc(Cc2c[nH]c3ncc(Cl)cc23)cn1 [P-0275, [5-(5-Chloro-1H-pyrrolo[2,3-b]pyridin-3-ylmethyl)-pyridin-2-yl]-(2-trifluoromethyl-benzyl)-amine]
20 | < 1000 | Cc1cnc2[nH]cc(Cc3ccc(NCc4ccccc4C(F)(F)F)nc3)c2c1 [P-0276, [5-(5-Methyl-1H-pyrrolo[2,3-b]pyridin-3-ylmethyl)-pyridin-2-yl]-(2-trifluoromethyl-benzyl)-amine]
21 | < 1000 | N#Cc1cnc2[nH]cc(Cc3ccc(NCc4c(F)cccc4F)nc3)c2c1 [P-0277, 3-[6-(2,6-Difluoro-benzylamino)-pyridin-3-ylmethyl]-1H-pyrrolo[2,3-b]pyridine-5-carbonitrile]
22 | < 1000 | Fc1cccc(F)c1CNc1ccc(Cc2c[nH]c3ncc(Cl)cc23)cn1 [P-0278, [5-(5-Chloro-1H-pyrrolo[2,3-b]pyridin-3-ylmethyl)-pyridin-2-yl]-(2,6-difluoro-benzyl)-amine]
23 | < 1000 | Cc1cnc2[nH]cc(Cc3ccc(NCc4ccccc4Cl)nc3)c2c1 [P-0279, (2-Chloro-benzyl)-[5-(5-methyl-1H-pyrrolo[2,3-b]pyridin-3-ylmethyl)-pyridin-2-yl]-amine]
24 | < 1000 | Clc1cnc2[nH]cc(Cc3ccc(NCc4ccccc4Cl)nc3)c2c1 [P-0280, (2-Chloro-benzyl)-[5-(5-chloro-1H-pyrrolo[2,3-b]pyridin-3-ylmethyl)-pyridin-2-yl]-amine]
25 | < 1000 | N#Cc1cnc2[nH]cc(Cc3ccc(NCc4ccccc4Cl)nc3)c2c1 [P-0281, 3-[6-(2-Chloro-benzylamino)-pyridin-3-ylmethyl]-1H-pyrrolo[2,3-b]pyridine-5-carbonitrile]
26 | < 1000 | COc1ccc(CNc2ccc(Cc3c[nH]c4ncc(C)cc34)cn2)cn1 [P-0282, (6-Methoxy-pyridin-3-ylmethyl)-[5-(5-methyl-1H-pyrrolo[2,3-b]pyridin-3-ylmethyl)-pyridin-2-yl]-amine]
27 | < 1000 | COc1ccc(CNc2ccc(Cc3c[nH]c4ncc(Cl)cc34)cn2)cn1 [P-0283, [5-(5-Chloro-1H-pyrrolo[2,3-b]pyridin-3-ylmethyl)-pyridin-2-yl]-(6-methoxy-pyridin-3-ylmethyl)-amine]
28 | < 1000 | COc1ccc(CNc2ccc(Cc3c[nH]c4ncc(C#N)cc34)cn2)cn1 [P-0284, 3-{6-[(6-Methoxy-pyridin-3-ylmethyl)-amino]-pyridin-3-ylmethyl}-1H-pyrrolo[2,3-b]pyridine-5-carbonitrile]
